Results taken from patent publication EP0552624B1, “Use of 9-cis retinoic acid, salts and esters thereof for the treatment of epithelial tumors” (F. HOFFMANN-LA ROCHE AG, priority 1992, dated 1993).

Key:
HeLa (tumorigenic) [1] = assay: Cell induced angiogenesis, in vivo pretreatment of mice, HeLa; set-up: species or system Balb/c mice; conditions: mice pretreated in vivo intraperitoneally before intradermal cell injection, control 28.3 ± 0.8
Protocol: (§1) The angiogenesis assays have been, previously described (Sidky YA and Auerbach R. Lymphocyte induced angiogenesis: A quantitative and sensitive assay of the graft-vs-host reaction. J. exp Med 141: 1084-1100, 1975. Majewski S et al. Inhibition of tumour-induced angiogenesis by systemically administered protamine sulphate. Int J Cancer 33: 831-833, 1984). Two assays were used in testing 9-cis retinoic acid. In the first assay the retinoid was added in vitro to the cell line before being injected into mice. In the second assay the mice were injected intraperitoneally with the retinoid in vivo before the tumor cell line was injected intradermally.

SKv-12 (Tumorigenic) = assay: Cell induced angiogenesis, in vivo pretreatment of mice, SKv-12; set-up: species or system Balb/c mice; conditions: mice pretreated in vivo intraperitoneally before intradermal cell injection, control 30.3 ± 2.6
Protocol: as §1

[2] = Acute toxicity, single intraperitoneal dose; format: in vivo, Füllinsdorf albino mice; conditions: single i.p. dose in rape oil
Protocol: Acute Toxicity was determined in Füllinsdorf albino mice. 9-cis retinoic acid was suspended in rape oil and administered intraperitoneally in one single dose. The lethal dose (LD) of 10%, 50% and 90% of the mice was recorded 24 hours, 10 days and 20 days after the application of the single dose. For each group 10 mice were used.

SKv-e1 (non-tumorigenic) [3] = assay: Cell induced angiogenesis, in vivo pretreatment of mice, SKv-e1; set-up: species or system Balb/c mice
Protocol: as §1

SKv-e1 (non-tumorigenic) [4] = assay: Cell induced angiogenesis, in vitro preincubation of cells, SKv-e1; format: in vivo, Balb/c mice
Protocol: as §1
(§2) Method: Cells of two tumorigenic cell lines, SKv-e2 and HeLa, and of a non-tumorigenic cell line, SKv-e1 were preincubated in vitro for 48 hours with 9-cis retinoic acid at a concentration of 10^-7 M followed by cell counting and washing in TC 199 medium. The cell concentration was adjusted to 2·10^5 viable cells per 0.1 ml of medium and injected intradermally into X-ray irradiated, but not retinoid-treated Balb/c mice. Controls were injected with tumor cells preincubated with DMSO. The angiogenic effect was determined according to the methods referred to above.

SKv-e2 (tumorigenic) [5] = assay: Tumor cell induced angiogenesis, in vitro preincubation of cells, SKv-e2; format: in vivo; conditions: SKv-e2 cells preincubated in vitro 48 hours with 10^-7 M, injected intradermally into untreated Balb/c mice; controls 34.7±3.7
Protocol: as §1, §2

HeLa (tumorigenic) [6] = assay: Tumor cell induced angiogenesis, in vitro preincubation of cells, HeLa; format: in vivo; conditions: HeLa cells preincubated in vitro 48 hours with 10^-7 M, injected intradermally into untreated Balb/c mice; controls 32.5±2.7
Protocol: as §1, §2

[7] = test system: SKv-l1, a transformed keratinocyte cell line containing human papilloma virus 16 (HPV 16); assay: Proliferation assay by direct cell counting on HPV 16-containing transformed keratinocytes; format: cell-based; conditions: 48 h, 10^-6 M, incubated for 2 days, p < 0.001, read-out: inhibited proliferation (growth inhibition in % compared to controls)
Protocol: 9-cis retinoic acid was further investigated on its effect on other transformed cell lines. A proliferation assay was performed on a virus containing cell line. SKv-l1, a transformed keratinocyte cell line containing human papilloma virus 16 (HPV 16) was tested with regard to inhibition of proliferation by 9-cis retinoic acid in two experiments with four replicates. 5·10^4 cells/well were plated in Eagle's medium and incubated for 2 days. Direct cell counting with a hemocytometer was done before and after incubation with the retinoid in a concentration of 10^-6 M and in corresponding DMSO controls. Growth inhibition was expressed in % compared to controls.

SKv-e2 (tumorigenic) [8] = assay: Cell induced angiogenesis, in vivo pretreatment of mice, SKv-e2; set-up: species or system Balb/c mice; conditions: mice pretreated in vivo intraperitoneally before intradermal cell injection, control 31.3 ± 2.7
Protocol: as §1

Structure (SMILES): CC(=CC=C/C(C)=C/C(=O)O)/C=C/C1=C(C)CCCC1(C)C (stereo in doubt) [9-cis retinoic acid, (E,Z,E,E)-3,7-dimethyl-9-[2,6,6-trimethyl-1-cyclohexen-1-yl]-2,4,6,8-nonatetraenoic acid]
- Mean number of blood vessels (HeLa (tumorigenic) [1]): 16.3 ± 1.8
- Mean number of blood vessels (SKv-12 (Tumorigenic)): 15.3 ± 1.0
- LD50 at 24 hours ([2]; Füllinsdorf albino, mouse, in vivo, ip, recorded 24 hours after): > 4000 mg/kg
- LD50 at 10 days ([2]; Füllinsdorf albino, mouse, in vivo, ip, recorded 10 days after): 1400 mg/kg
- LD50 at 20 days ([2]; Füllinsdorf albino, mouse, in vivo, ip, recorded 20 days after): 1400 mg/kg
- LD 10% ([2]; recorded 24 hours after): > 4000 mg/kg
- LD 90% ([2]; recorded 24 hours after): > 4000 mg/kg
- LD 10% ([2]; recorded 10 days after): 1200 mg/kg
- LD 90% ([2]; recorded 10 days after): 1800 mg/kg
- LD 10% ([2]; recorded 20 days after): 1200 mg/kg
- LD 90% ([2]; recorded 20 days after): 1800 mg/kg
- Mean number of blood vessels (SKv-e1 (non-tumorigenic) [3]; SKv-e1, mice pretreated in vivo intraperitoneally before intradermal cell injection, control 19.7 ± 3.7): 24.3 ± 5.6
- anti-angiogenic effect with a non-tumorigenic cell line (SKv-e1 (non-tumorigenic) [3]; mice treated in vivo, result in words): no anti-angiogenic effect
- Mean number of blood vessels (SKv-e1 (non-tumorigenic) [4]; SKv-e1 cells preincubated in vitro 48 hours with 10^-7 M, injected intradermally into untreated Balb/c mice, controls 26.3±1.5): 25.6±2.2 p < 0.1
- angiogenesis induced by the non-tumorigenic subline (SKv-e1 (non-tumorigenic) [4]; in vitro preincubation of SKv-e1 cells, result in words): did not inhibit angiogenesis
- Mean number of blood vessels (SKv-e2 (tumorigenic) [5]): 23.6±4.2 p < 0.001
- Mean number of blood vessels (HeLa (tumorigenic) [6]): 23.8±2.9 p < 0.001
- inhibition at 1 µM [7]: 32.4%
- Mean number of blood vessels (SKv-e2 (tumorigenic) [8]): 19.7 ± 0.6
